Results taken from US10829649B2, “Methods and coatings for protecting surfaces from bio-fouling species” (priority 2018, dated 2020).
≈ marks a conversion by molar mass, not a printed value. Read-outs that look alike come from different tables or passages of the source.

Columns and labels:
[1] = soil and water runoff; cited from earlier work
[2] = cited from earlier work
[3] = tested on: barnacle or mussel larvae; assay: biocide-impregnated polymer without outer biostatic layer exposed to larvae; format: in vivo; details: weeks or months later; no outer biostatic layer
Description: With respect to undesirable effects on the aquatic environment and the benign and beneficial organisms that reside there, the outer biostatic layer is less potentially hazardous both for the chemical and physical reasons mentioned above and shields the water from contact with the more potentially hazardous inner biocidal layer. Also, when an occasional barnacle or mussel larva penetrates the outer layer and touches the inner layer as a juvenile, it is killed quickly and outright on contact. It has been experimentally observed that, when a polymer impregnated with a biocidal biocide such as ivermectin is exposed to barnacle or mussel larvae, and there is no outer biostatic attachment inhibiting polymer layer present, that larvae do attach regardless and grow on the surface of the polymer layer. The organisms with their tiny shells can be seen with a magnifying glass. […] With the present embodiments, the area of the puncture site of the inner layer is microscopic and thus nothing leaks out of the inner layer into the surrounding water.

Molecule: CC[C@H]1CCC[C@H](O[C@H]2CC[C@H](N(C)C)[C@@H](C)O2)[C@@H](C)C(=O)C2=C[C@@H]3[C@@H](C=C(C)[C@@H]4C[C@@H](O[C@@H]5O[C@@H](C)[C@H](OC)[C@@H](OC)[C@H]5OC)C[C@@H]34)[C@@H]2CC(=O)O1 [spinosad D]
- adsorption coefficient KOC [1]: 34,600

Molecule: pyrethrins
- adsorption coefficient KOC [1]: > 100,000
- water solubility [2]: < 0.1 µg/mL

Molecule: [Ag+].[O-][n+]1ccccc1[S-] [silver pyrithione]
- water solubility ([2]; silver pyrithione): about 37 per L

Molecule: ivermectin
- adult barnacles or mussels on the polymer layer [3]: no adult barnacle or mussel adults are seen

Molecule: zinc pyrithione
- water solubility ([2]; metal pyrithione salts): about 12 mg per L

Molecule: CC(C)[C@]12O[C@H]1[C@@H]1O[C@]13[C@]1(O[C@H]1C[C@H]1C4=C(CC[C@@]13C)C(=O)OC4)[C@@H]2O [triptolide]
- water solubility [2]: 0.017 µg/mL (≈ 0.0472 µM)

Molecule: [O]=[Zn] [zinc oxide]
- water solubility ([2]; pure water): about 16 mg/L

Molecule: Cc1cccc(C(C)c2cnc[nH]2)c1C (stereo not shown) [Medetomidine]
- water solubility [2]: 186 µg/mL (≈ 929 µM)

Molecule: spinosad
- adsorption coefficient KOC [1]: 34,600
